Results as given in patent publication US20240285571A1, “METHODS OF TREATING BONE INFECTIONS” (MICROBION CORPORATION, priority 2020, published 2024).

Key:
[1] = system: E. coli; details: E. coli MMX 102 (ATCC 25922); cited from earlier work
[2] = system: E. coli; experiment: Broth microdilution MIC (Example 5); type: cell-based, Escherichia coli
Procedure: (§1) Test and Comparator Agents: The test agents were stored at room temperature until assayed. […] The stock solutions were allowed to stand for at least 1 hr prior to use to auto-sterilize.
(§2) TestMedia: Test media were prepared and stored in accordance with guidelines from CLSI (4, 6, 7).
(§3) Broth Microdilution MC Testing (Aerobic Bacteria and Yeast): The broth microdilution assay method employed for the susceptibility testing of aerobic bacteria (excluding N. gonorrhoeae which was evaluated by agar dilution) and yeast essentially followed the procedures described by CLSI (3, 4, 7, 8) and employed automated liquid handlers to conduct serial dilutions and liquid transfers. […] These would become the ‘mother plates’ from which ‘daughter’ or test plates would be prepared. The drugs (300 μL at 40× the desired top concentration in the test plates) were dispensed into the appropriate well in Column 1 of the mother plates. The Biomek 2000 was used to make serial two-fold dilutions through Column 11 in the “mother plate”. The wells of Column 12 contained no drug and ultimately served as the organism growth control wells.
(§4) The daughter plates were prepared using the Biomek FX which transferred 5 μL of drug solution from each well of a mother plate to the corresponding well of the correct daughter plate in a single step.
(§5) A standardized inoculum of each organism was prepared per CLSI methods (3, 7). Isolated colonies of each test isolate were picked from the primary plate and a suspension was prepared to equal a 0.5 McFarland turbidity standard. Standardized suspensions were then diluted […] (1:100 for yeast, 1:20 for bacteria). After dilution, the inoculum suspensions were then transferred to compartments of sterile reservoirs divided by length (Beckman Coulter), and the Biomek 2000 was used to inoculate all plates. Daughter plates were placed on the Biomek 2000 in reverse orientation so that plates were inoculated from low to high drug concentration.
(§6) The Biomek 2000 delivered 10 μL of standardized inoculum into each well of the appropriate daughter plate for an additional 1:20 dilution.
(§7) Plates were stacked 4 high, covered with a lid on the top plate, placed into plastic bags, and incubated at 35° C. for approximately 24-48 hr for all yeast isolates and 16-24 hr for aerobic bacteria. Plates were viewed from the bottom using a plate viewer. […] MIC endpoints for the test agents and control compounds were read per CLSI criteria (3, 7).

[3] = system: E. faecium; experiment: Broth microdilution MIC (Example 5); type: cell-based; details: VRE vanA
Procedure, shortened: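 Colonies were suspended to a 0.5 McFarland standard, diluted in test media, and dispensed into plates holding two-fold serial drug dilutions.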

[4] = system: P. aeruginosa; details: P. aeruginosa MMX 103 (ATCC 27853); cited from earlier work
[5] = system: P. aeruginosa; experiment: Broth microdilution MIC (Example 5); type: cell-based, Pseudomonas aeruginosa
Procedure: as §1, §2, §3, §4, §5, §6, §7

[6] = system: E. cloacae; experiment: Broth microdilution MIC (Example 5); type: cell-based, Enterobacter cloacae; details: E. cloacae MMX 5981 (ATCC BAA-2468); NDM-1
Procedure: as §1, §2
Broth Microdilution MC Testing (Aerobic Bacteria and Yeast): The broth microdilution assay method employed for the susceptibility testing of aerobic bacteria (excluding N. gonorrhoeae which was evaluated by agar dilution) and yeast essentially followed the procedures described by CLSI (3, 4, 7, 8) and employed automated liquid handlers to conduct serial dilutions and liquid transfers. […] These would become the ‘mother plates’ from which ‘daughter’ or test plates would be prepared. The drugs (300 μL at 40× the desired top concentration in the test plates) were dispensed into the appropriate well in Column 1 of the mother plates. The Biomek 2000 was used to make serial two-fold dilutions through Column 11 in the “mother plate”. […]
Plates were stacked 4 high, covered with a lid on the top plate, placed into plastic bags, and incubated at 35° C. for approximately 24-48 hr for all yeast isolates and 16-24 hr for aerobic bacteria. […] MIC endpoints for the test agents and control compounds were read per CLSI criteria (3, 7).

[7] = system: K. pneumoniae; experiment: Broth microdilution MIC (Example 5); type: cell-based, Klebsiella pneumoniae
Procedure: as §1, §2, §3, §4, §5, §6, §7

[8] = system: S. aureus; experiment: Broth microdilution MIC (Example 5); type: cell-based, Staphylococcus aureus
Procedure: as §1, §2, §3, §4, §5, §6, §7

[9] = system: E. faecalis; experiment: Broth microdilution MIC (Example 5); type: cell-based, Enterococcus faecalis; details: VRE
Procedure: as §1, §2, §3, §4, §5, §6, §7

[10] = system: A. baumannii; experiment: Broth microdilution MIC (Example 5); type: cell-based, Acinetobacter baumannii
Procedure: as §1, §2, §3, §4, §5, §6, §7

Substance: Gentamicin [reference compound]
- CLSI QC range of MIC [1]: (0.25-1) μg/mL
- MIC ([2]; E. coli MMX 102 (ATCC 25922), QC): 1 µg/mL
- MIC ([2]; E. coli MMX 5980 (ATCC BAA-2469), NDM-1): >64 µg/mL
- MIC ([2]; E. coli MMX 8423, ESBL, LevR CAZR GmR): 64 µg/mL
- MIC ([2]; E. coli MMX 8424, ESBL, CAZR): 0.25 µg/mL
- MIC ([2]; E. coli MMX 8425, ESBL, LevR CAZR GmR): >64 µg/mL
- MIC ([3]; E. faecium MMX 485): >64 µg/mL
- MIC ([3]; E. faecium MMX 752): >64 µg/mL
- CLSI QC range of MIC [4]: (0.5-2) μg/mL
- MIC ([5]; P. aeruginosa MMX 103 (ATCC 27853), QC): 1 µg/mL
- MIC ([5]; P. aeruginosa MMX 1381, MDR): 8 µg/mL
- MIC ([5]; P. aeruginosa MMX 2562, MDR): 8 µg/mL
- MIC ([5]; P. aeruginosa MMX 3991, MDR): 4 µg/mL
- MIC ([5]; P. aeruginosa MMX 4654, IMP-7): >64 µg/mL
- MIC ([5]; P. aeruginosa MMX 4697, VIM-2): 4 µg/mL
- MIC [6]: >64 µg/mL
- MIC ([7]; K. pneumoniae MMX 4622, KPC-2): 0.25 µg/mL
- MIC ([7]; K. pneumoniae MMX 4623, KPC-2): 64 µg/mL
- MIC ([7]; K. pneumoniae MMX 4653, KPC-3): 1 µg/mL
- MIC ([7]; K. pneumoniae MMX 4683, KPC-2): 1 µg/mL
- MIC ([7]; K. pneumoniae MMX 4684, ESBL): 0.25 µg/mL
- MIC ([7]; K. pneumoniae MMX 4685, ESBL): 1 µg/mL
- MIC ([7]; K. pneumoniae MMX 4694, KPC-3): 8 µg/mL
- MIC ([7]; K. pneumoniae MMX 5979, NDM-1): >64 µg/mL
- MIC ([8]; S. aureus MMX 101 (ATCC 29213), QC, MSSA): 0.12 µg/mL
- MIC ([8]; S. aureus MMX 5373, MRSA): 0.25 µg/mL
- MIC ([8]; S. aureus MMX 6311, MRSA): 0.25 µg/mL
- MIC ([8]; S. aureus MMX 9203, MRSA): 0.12 µg/mL
- MIC ([8]; S. aureus MMX 9204, MRSA): 0.25 µg/mL
- MIC ([8]; S. aureus MMX 9205, MRSA): 0.25 µg/mL
- MIC ([9]; E. faecalis MMX 8960): >64 µg/mL
- MIC ([9]; E. faecalis MMX 8961): 8 µg/mL
- MIC ([9]; E. faecalis MMX 8962): >64 µg/mL
- MIC ([10]; A. baumannii MMX 2592, MDR): >64 µg/mL
- MIC ([10]; A. baumannii MMX 2593, MDR): >64 µg/mL
- MIC ([10]; A. baumannii MMX 3372, MDR): 0.5 µg/mL
- MIC ([10]; A. baumannii MMX 3373, Sensitive): 0.12 µg/mL
- MIC ([10]; A. baumannii MMX 4651 (NCTC 13304), MDR, OXA-27): 8 µg/mL
